Where a name gives a salt, the structure may show the parent alone.
assay: in vitro; conditions: rat, gh3-tre-luc cells, AC50 (uM) modified / 1000

C[N+](C)(C)CCO [Cholin acetate] and CNCCO [N-Methylethanolamine] cannot be ordered by CC50 at 24 h: greater than 50 µM for the first, greater than 90 µM for the second.

C=C(C)C(=O)OC1C[C@H]2CC[C@]1(C)C2(C)C (stereo partly drawn) [Isobornyl methacrylate] and C=C(C)C1CC=C(C)C(OC(C)=O)C1 (stereo not drawn) [Carvyl acetate] cannot be ordered by CC50 at 24 h: greater than 90 µM for the first, greater than 90 µM for the second.

N#CCCCC(C#N)CCC#N (stereo not drawn) [1,3,6-Hexanetricarbonitrile] and CC(CN)CCCN (stereo not drawn) cannot be ordered by CC50 at 24 h: greater than 90 µM for the first, greater than 90 µM for the second.

CSc1cnccn1 [Pyrazinyl methyl sulfide] and Nc1ccncc1 [4-Aminopyridine] cannot be ordered by CC50 at 24 h: greater than 90 µM for the first, greater than 90 µM for the second.

CCCCC(CC)COC(=O)CCCCCCCCC(=O)OCC(CC)CCCC (stereo not drawn) [Bis(2-ethylhexyl) decanedioate] and CCCCCCCCCC [Decane] cannot be ordered by CC50 at 24 h: greater than 90 µM for the first, greater than 90 µM for the second.

First: C=Cc1ccc(C)cc1 [4-Methylstyrene]
Second: Cc1ccc(N(SC(F)(Cl)Cl)S(=O)(=O)N(C)C)cc1 [Tolylfluanid]
The CC50 at 24 h of the first is higher: greater than 90 µM for the first, 3.13 µM for the second.

N=C(N)N1CCc2ccccc2C1 [Debrisoquin sulfate] and O=C(CBr)OCc1ccccc1 [Benzyl bromoacetate] cannot be ordered by CC50 at 24 h: greater than 50 µM for the first, greater than 90 µM for the second.

Nc1c(CC(=O)O)cccc1C(=O)c1ccc(Br)cc1 [Bromfenac sodium sesquihydrate] and O=C(O)C(=O)Cc1ccccc1 [Phenylpyruvic acid] cannot be ordered by CC50 at 24 h: greater than 50 µM for the first, greater than 90 µM for the second.

C[C@H]1C[C@@H]2[C@H]([C@@H](O)C[C@@]3(C)[C@H]2CC[C@]3(O)C(=O)COC(=O)CCC(=O)O)[C@@]2(C)C=CC(=O)C=C12 [Methylprednisolone succinate] and O=C(O)CCC(=O)OC[C@@H](NC(=O)C(Cl)Cl)[C@H](O)c1ccc([N+](=O)[O-])cc1 [Chloramphenicol sodium succinate] cannot be ordered by CC50 at 24 h: greater than 50 µM for the first, greater than 50 µM for the second.

O=C(O)c1cc(O)c2c(c1)[C@H]([C@H]1c3cc(C(=O)O)cc(O)c3C(=O)c3c(O[C@@H]4O[C@H](CO)[C@@H](O)[C@H](O)[C@H]4O)cccc31)c1cccc(O[C@@H]3O[C@H](CO)[C@@H](O)[C@H](O)[C@H]3O)c1C2=O [Sennoside A] and CN(C)[C@@H]1C(O)=C(C(N)=O)C(=O)[C@@]2(O)C(O)=C3C(=O)c4c(O)cccc4[C@@](C)(O)[C@H]3C[C@@H]12 [Tetracycline] cannot be ordered by CC50 at 24 h: greater than 50 µM for the first, greater than 90 µM for the second.

CC=C(Cl)Cl [1,1-Dichloropropene] and CC(C)(C)Cl [t-Butylchloride] cannot be ordered by CC50 at 24 h: greater than 90 µM for the first, greater than 100 µM for the second.

O=C(O)CCCC/C=C(\c1ccccc1)c1cccnc1 [Isbogrel] and c1ccc(Sc2ccccc2)cc1 [Diphenyl sulfide] cannot be ordered by CC50 at 24 h: greater than 50 µM for the first, greater than 90 µM for the second.

CCc1ccc(S(=O)(=O)O)cc1 [4-Ethylbenzenesulfonic acid] and Cc1ccc(S(=O)(=O)O)c(C)c1 [Sodium m-xylene-4-sulfonate] cannot be ordered by CC50 at 24 h: greater than 50 µM for the first, greater than 90 µM for the second.

First: CC(=O)O[C@H]1C(=O)[C@@]2(C)[C@H]([C@H](OC(=O)c3ccccc3)[C@]3(O)C[C@H](OC(=O)[C@H](O)[C@@H](NC(=O)c4ccccc4)c4ccccc4)C(C)=C1C3(C)C)[C@]1(OC(C)=O)CO[C@@H]1C[C@@H]2O [Paclitaxel]
Second: CCCOC(C(=O)OC1CCN(C)CC1)(c1ccccc1)c1ccccc1 [Propiverine hydrochloride]
The CC50 at 24 h of the first is 59-fold lower: 0.25 µM for the first, 14.7 µM for the second.

First: CCOc1ccc(/N=N/c2ccc(N)cc2N)cc1 [Ethoxazene]
Second: O=S(=O)(O)c1ccc(N=Nc2c(O)ccc3ccccc23)cc1 [C.I. Acid Orange 7]
The CC50 at 24 h of the first is higher: greater than 50 µM for the first, 44.3 µM for the second.

CC(C)(O)c1ccc(C(C)(C)O)cc1 [1,4-Bis(2-hydroxy-2-propyl)benzene] and CC(C)(O)C(=O)c1ccccc1 [2-Hydroxy-2-methylpropiophenone] cannot be ordered by CC50 at 24 h: greater than 90 µM for the first, greater than 90 µM for the second.

Cc1cc(C)cc([N+](=O)[O-])c1 [1,3-Dimethyl-5-nitrobenzene] and Cc1c(C(=O)O)cccc1[N+](=O)[O-] [2-Methyl-3-nitrobenzoic acid] cannot be ordered by CC50 at 24 h: greater than 90 µM for the first, greater than 90 µM for the second.

C=CC(=O)NCOCC(C)C [N-(Isobutoxymethyl)acrylamide] and COC(=O)CC#N [Methyl cyanoacetate] cannot be ordered by CC50 at 24 h: greater than 90 µM for the first, greater than 100 µM for the second.

C/C=C/c1ccc(OCC)c(O)c1 [trans-2-Ethoxy-5-(1-propenyl)phenol] and COc1ccc(OC)c(Cl)c1 [2-Chloro-1,4-dimethoxybenzene] cannot be ordered by CC50 at 24 h: greater than 90 µM for the first, greater than 90 µM for the second.

FC(Cl)(Cl)Cl [Trichlorofluoromethane] and O=P(O)(O)C(Cl)(Cl)P(=O)(O)O [Clodronic acid, disodium salt] cannot be ordered by CC50 at 24 h: greater than 90 µM for the first, greater than 50 µM for the second.

Compared with CC(=O)c1ccc2c(c1)N(CCCN1CCC(CCO)CC1)c1ccccc1S2 [Piperacetazine], CC(=O)OCC(=O)NCCCOc1cccc(CN2CCCCC2)c1 [Roxatidine acetate hydrochloride] is higher in CC50 at 24 h: 10.7 µM for the first, greater than 50 µM for the second.

Cc1cc(C)c(N)cc1C [2,4,5-Trimethylaniline] and Nc1cccc(C(F)(F)F)c1 [3-(Trifluoromethyl)aniline] cannot be ordered by CC50 at 24 h: greater than 90 µM for the first, greater than 90 µM for the second.

CCCCCCCCCC/C=C/C1CC(=O)OC1=O (stereo not drawn) [3-(Dodecenyl)dihydro-2,5-furandione] and CC1=C(O)C(=O)CO1 [4-Hydroxy-5-methyl-3-furanone] cannot be ordered by CC50 at 24 h: greater than 90 µM for the first, greater than 90 µM for the second.

COCCCOc1ccnc(C[S+]([O-])c2nc3ccccc3[nH]2)c1C (stereo not drawn) [Rabeprazole sodium] and CCN(CC)CCc1nc(-c2ccccc2)no1 [Oxalamine citrate] cannot be ordered by CC50 at 24 h: greater than 90 µM for the first, greater than 20 µM for the second.

Going from Nc1c(Cl)c(Cl)nc(C(=O)O)c1Cl [Picloram] to Cc1c(Nc2ncccc2C(=O)O)cccc1C(F)(F)F [Flunixin meglumine], the CC50 at 24 h falls from greater than 100 µM to 3.99 µM.

COC(=O)[C@@H]1[C@H]2C[C@H]3c4[nH]c5ccccc5c4CCN3C[C@@H]2CC[C@@H]1O [Yohimbine] and CC1(c2ccccc2)OC(C(=O)O)=CC1=O (stereo not drawn) [Acifran] cannot be ordered by CC50 at 24 h: greater than 50 µM for the first, greater than 50 µM for the second.

CC[C@H](C)COC(=O)/C=C/c1ccc(N=Cc2ccc(OC)cc2)cc1 [(+)-2-Methylbutyl-4-methoxybenzyladine-4'-aminocyannate] and COc1ccccc1OCC(O)COC(N)=O (stereo not drawn) [Methocarbamol] cannot be ordered by CC50 at 24 h: greater than 90 µM for the first, greater than 20 µM for the second.

O=CO [Formic acid, potassium salt] and CCC(O)C(C)(C)C (stereo not drawn) [2,2-Dimethyl-3-pentanol] cannot be ordered by CC50 at 24 h: greater than 5 µM for the first, greater than 90 µM for the second.

Oc1cc2c(cc1O)[C@@H]1c3ccc(O)c(O)c3OC[C@]1(O)C2 [Hematoxylin] and O=C(O)C(=O)Nc1cccc(-c2nnn[nH]2)c1 [Acitazanolast] cannot be ordered by CC50 at 24 h: 69.9 µM for the first, greater than 50 µM for the second.

same assay, conditions: rat, gh3-tre-luc cells, AC50 (uM) modified / 1000, Tox21_110001=Tox21_111448; viability, 1 nM T3 present, 24 h

Work on CC(C)CC(N(C)C)C1(c2ccc(Cl)cc2)CCC1 (stereo not drawn) [Sibutramine hydrochloride] yielded a CC50 at 24 h greater than 50 µM.

same assay, conditions: rat, gh3-tre-luc cells, AC50 (uM) modified / 1000, Tox21_110001=Tox21_113227; viability, 1 nM T3 present, 24 h

For CCOC(=O)C1(c2ccccc2)CCCN(C)CC1 (stereo not drawn) [Ethoheptazine hydrochloride], the CC50 at 24 h was greater than 50 µM.

same assay, conditions: rat, gh3-tre-luc cells, AC50 (uM) modified / 1000, Tox21_110001=Tox21_200572; viability, 1 nM T3 present, 24 h

In the case of O=[N+]([O-])c1ccc(CCl)cc1 [4-Nitrobenzyl chloride], the CC50 at 24 h is reported as greater than 90 µM.

same assay, conditions: rat, gh3-tre-luc cells, AC50 (uM) modified / 1000, Tox21_110001=Tox21_201462; viability, 1 nM T3 present, 24 h

O=[N+]([O-])c1ccc(O)c([N+](=O)[O-])c1 [2,4-Dinitrophenol] showed a CC50 at 24 h greater than 90 µM.

same assay, conditions: rat, gh3-tre-luc cells, AC50 (uM) modified / 1000, Tox21_110001=Tox21_201593; viability, 1 nM T3 present, 24 h

For CCCCOCCOP(=O)(OCCOCCCC)OCCOCCCC [Tris(2-butoxyethyl) phosphate], the CC50 at 24 h was greater than 90 µM.

same assay, conditions: rat, gh3-tre-luc cells, AC50 (uM) modified / 1000, Tox21_110001=Tox21_202898; viability, 1 nM T3 present, 24 h

For CCCCCON=O [Pentyl nitrite], the CC50 at 24 h was greater than 90 µM.

same assay, conditions: rat, gh3-tre-luc cells, AC50 (uM) modified / 1000, Tox21_110001=Tox21_300030; viability, 1 nM T3 present, 24 h

Work on O=[N+]([O-])c1ccc(O)c([N+](=O)[O-])c1 [2,4-Dinitrophenol] yielded a CC50 at 24 h of 56.2 µM.

same assay, conditions: rat, gh3-tre-luc cells, AC50 (uM) modified / 1000, Tox21_110001=Tox21_302891; viability, 1 nM T3 present, 24 h

Work on CCCCOCCOP(=O)(OCCOCCCC)OCCOCCCC [Tris(2-butoxyethyl) phosphate] yielded a CC50 at 24 h of 58.5 µM.
